Holding throughout (assay type): in vivo, human
Assay [1] has as its system IgE. In words: Study 2: Total IgE ELISA in interstitial fluid, effect of supplementation. The note with it: for Concentration of IgE (log), MEAN: Supplement Yes. Here is the method: (§1) The laser made four pores at each collection site.
(§2) The other skin analytes were measured in Study 2 using standard ELISA kits: MMP-1 (ELISA Cat # QIA55, Oncogene Research Products, Cambridge Mass.); Total IgE (ELISA Cat # RE59061, IBL, Hamburg, Germany distributed by KMI Diagnostics); Non Extraction IGF-1 (ELISA Cat # DSL-10-2800, Diagnostics Systems Laboratories, Webster Tex.); IL-1 RA (ELISA Cat # DRA00, R&D Systems, Minneapolis, Minn.); IL-1A (ELISA Cat # EH2IL1A, Pierce/Endogen, Rockford, Ill.).
Background: An ELISA detects its analyte on a solid surface through an enzyme-linked reagent.

The test system of assay [2] is IGF-1. Kind of assay: Study 2: IGF-1 ELISA in interstitial fluid, effect of supplementation. The note with it: Supplement Yes. As for the experimental part:
as §1, §2

The test system of assay [3] is IL-1A. In words: Study 2: IL-1A ELISA in interstitial fluid, effect of supplementation. The note with it: for Concentration of IL-1A (log), MEAN: Supplement Yes. Here is the method:
as §1, §2

Assay [4] deals with IL-1 RA. Kind of assay: Study 2: IL-1 RA ELISA in interstitial fluid, effect of supplementation. The note with it: for Concentration of IL-1 RA (log), MEAN: Supplement Yes. Here is the method:
as §1, §2

Assay [5] has as its system MMP-1. In words: Study 2: MMP-1 ELISA in interstitial fluid, effect of supplementation. The note with it: for Concentration of MMP-1 (log), MEAN: Supplement Yes. Here is the method: as §1, §2

Take `O=C1O[C@H]([C@@H](O)CO)C(O)=C1O` [Vitamin C]: in assay [1], the “Effect of vitamin C supplement on concentration of IgE in ISF” value was “significantly increased”. In addition, the figures for the “Concentration of IgE (log), MEAN” value in assay [1] (sun-exposed site ISF) and in assay [1] (sun-protected site ISF) were 4.94 and 18.50, respectively. The figures for the “Concentration of IGF-1, MEAN” value in assay [2] (sun-exposed site ISF) and in assay [2] (sun-protected site ISF) were 76.83 and 97.78, respectively. The “Effect of vitamin C supplement on concentration of IL-1A in ISF” value in assay [3] is on record as “significantly increased”. The “Concentration of IL-1A (log), MEAN” value is 120.24 in assay [3] (sun-exposed site ISF) and 191.5 in assay [3] (sun-protected site ISF). In addition, in assay [4], the “Effect of vitamin C supplement on concentration of IL-1 RA in ISF” value is given as “significantly increased”. The “Concentration of IL-1 RA (log), MEAN” value in assay [4] (sun-exposed site ISF) is 10140; in assay [4] (sun-protected site ISF), 9492. Besides, the “Effect of vitamin C supplement on concentration of MMP-1 in ISF” value in assay [5] was “significantly increased”. Further, the “Concentration of MMP-1 (log), MEAN” value in assay [5] (sun-exposed site ISF) is 0.64; in assay [5] (sun-protected site ISF) it was 0.91.

The values above are taken from patent US20030078518A1, “Method of treating the skin of a subject” (priority 2001, published 2003).
